Series [1] deals with A549 human non-small-cell lung carcinoma. As to the kind of experiment: In vitro cytotoxicity, Microculture Tetrazolium Assay, A549. It is filed as cell-based. The conditions noted are these: read-out: IC50, the concentration of cytotoxic agent which inhibits the proliferation of the treated cells by 50%. On the procedure: (§1) Four cell lines were used: • L1210 murine leukaemia • A549 human non-small-cell lung carcinoma • HT29 human colon carcinoma • DU145 prostate carcinoma
(§2) L1210 murine leukaemia was used in vitro. The cells are cultured in RPMI 1640 complete culture medium containing 10% foetal calf serum, 2 mM glutamine, 50 units/ml of penicillin, 50 μg/ml of streptomycin and 10 mM Hepes, pH: 7.4. The cells are distributed on microplates and are exposed to the cytotoxic compounds for 4 doubling periods, or 48 hours. The number of viable cells is then quantified by a calorimetric assay, the Microculture Tetrazolium Assay (J. Carmichael et al., Cancer Res.; 47, 936-942 (1987)). The results are expressed as the IC50, the concentration of cytotoxic agent which inhibits the proliferation of the treated cells by 50%.

The subject of series [2] is HT29 human colon carcinoma. As to the kind of experiment: In vitro cytotoxicity, Microculture Tetrazolium Assay, HT29. The series is classed as cell-based. The conditions noted are these: HT-29, read-out: IC50, the concentration of cytotoxic agent which inhibits the proliferation of the treated cells by 50%. On the procedure: as §1, §2
Another series deals with DU145 prostate carcinoma. As to the kind of experiment: In vitro cytotoxicity, Microculture Tetrazolium Assay, DU145. The series is classed as cell-based. The settings on record: Homo sapiens, DU-145, read-out: IC50, the concentration of cytotoxic agent which inhibits the proliferation of the treated cells by 50%. On the procedure: as §1, §2
The next series deals with L1210 murine leukaemia. As to the kind of experiment: In vitro cytotoxicity, Microculture Tetrazolium Assay, L1210. The series is classed as cell-based. The conditions noted are these: Mus musculus, exposure 4 doubling periods, or 48 hours, read-out: IC50, the concentration of cytotoxic agent which inhibits the proliferation of the treated cells by 50%. On the procedure:
as §1, §2

In the case of `O=C1NC(=O)c2c1c1c3ccccc3[nH]c1c1cccn21` [Example 1, Pyrrolo[3′,4′:5,6]indolizino[8,7-b]indole-1,3(2H,8H)dione], the melting point – broadly, the temperature of the solid-liquid transition – is 218 to 220 °C. The IC50 in series [1] was 1.99 µM. The IC50 in series [2] is 3.3 µM. Besides, the IC50 with DU145 prostate carcinoma turned out to be 1.4 µM. Moreover, the IC50 in the series with L1210 murine leukaemia was determined as 3.1 µM.

The compound `CN1C(=O)c2c(n3cccc3c3[nH]c4ccccc4c23)C1=O` [Example 2, 2-Methylpyrrolo[3′,4′:5,6]indolizino[8,7-b]indole-1,3(2H,8H)dione] had a melting point of 226 to 228 °C.

`O=C1NC(=O)c2c1c1c3cc(OCc4ccccc4)ccc3[nH]c1c1cccn21` [Example 3, 11-(Benzyloxy)pyrrolo[3′,4′:5,6]indolizino[8,7-b]indole-1,3(2H,8H)-dione] returned a melting point of 275 °C.

For `O=C1NC(=O)c2c1c1c3cc(Br)ccc3[nH]c1c1cccn21` [Example 7, 11-Bromopyrrolo[3′,4′:5,6]indolizino[8,7-b]indole-1,3(2H,8H)-dione], the melting point is more than 300 °C.

The compound `CN1C(=O)c2c(n3cccc3c3[nH]c4ccc(Br)cc4c23)C1=O` [Example 8, 11-Bromo-2-methylpyrrolo[3′,4′:5,6]indolizino[8,7-b]indole-1,3(2H,8H)-dione] had a melting point of more than 300 °C.

In turn, `O=C1NC(=O)c2c1c1c3cc(Cl)ccc3[nH]c1c1cccn21` [Example 9, 11-Chloropyrrolo[3′,4′:5,6]indolizino[8,7-b]indole-1,3(2H,8H)-dione] had a melting point of 298 to 304 °C.

With `CN1C(=O)c2c(n3cncc3c3[nH]c4ncccc4c23)C1=O` [Example 18, 2-Methylimidazo[1,5-a]pyrido[3′,2′:4,5]pyrrolo[2,3-c]pyrrolo[3,4-e]-Pyridine-1,3(2H,8H)-dione], the melting point lay in the range of 304 to 307 °C.

In turn, `CN1C(=O)C2c3c([nH]c4ncccc34)-c3nccn3C2C1=O` (stereo not shown) [Example 19, 6-Methyl-7a,12-dihydroimidazo[1,2-a]pyrido[3′,2′:4,5]pyrrolo[2,3-c]-pyrrolo[3,4-e]pyridine-5,7(4aH,6H)-dione] showed a melting point of 222 to 224 °C.

`CC(=O)OC[C@H]1O[C@@H](n2c3ncccc3c3c4c(n5cncc5c32)C(=O)N(C)C4=O)[C@H](OC(C)=O)[C@@H](OC(C)=O)[C@@H]1OC(C)=O` [Example 21, 2-Methyl-8-(2,3,4,6-tetra-O-acetyl-β-D-glucopyranosyl)-imidazo-[1,5-a]pyrido[3′,2′:4,5]pyrrolo[2,3-c]pyrrolo[3,4-e]pyridine-1,3(2H,8H)-dione]: the melting point was determined as 204 °C.
